Source: ChEMBL document CHEMBL1201862, “PubChem BioAssay data set” (2004)
The source made the active and inactive calls. Unless noted, no cut-off for these calls is given here.

Legend:
Cytochrome P450 2D6 = Cytochrome P450 2D6 (Homo sapiens, UniProt P10635);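 note: CYP2D6 member of a cytochrome P450 panel assay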
[1] = mammalian cell cytotoxicity, dose response, cytotoxicity control, plate reader, cherry-pick samples (AID 504397); format: functional, cell-based
Beta-galactosidase = Beta-galactosidase (Escherichia coli, UniProt Q8VNN2); experiment: PubChem AID 485352; format: functional
[2] = molecular target: T1, Type-1 angiotensin II receptor (Homo sapiens, UniProt P30556); experiment: AT1 receptor antagonists, dose response, selectivity assay for APJ receptor antagonist project, cell-based, uHTS hits (AID 463214); format: functional;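 note: antagonist potency against angiotensin II stimulated AT1 response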
T1 sequence (P30556 whole entry): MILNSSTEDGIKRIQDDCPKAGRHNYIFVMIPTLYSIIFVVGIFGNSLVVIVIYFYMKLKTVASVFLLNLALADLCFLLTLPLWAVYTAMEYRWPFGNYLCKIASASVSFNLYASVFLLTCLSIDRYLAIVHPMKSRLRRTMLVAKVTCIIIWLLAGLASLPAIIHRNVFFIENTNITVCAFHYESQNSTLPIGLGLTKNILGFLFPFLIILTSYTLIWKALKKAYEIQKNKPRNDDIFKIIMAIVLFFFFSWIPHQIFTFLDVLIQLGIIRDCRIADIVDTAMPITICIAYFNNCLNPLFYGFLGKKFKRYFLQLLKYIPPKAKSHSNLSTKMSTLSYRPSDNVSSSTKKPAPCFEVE

[3] = molecular target: Intestinal-type alkaline phosphatase (Mus musculus, UniProt P24822); experiment: PubChem AID 488874; format: functional
[4] = molecular target: T2, Intestinal-type alkaline phosphatase (Homo sapiens, UniProt P09923); experiment: human IAP inhibitors, dose response, biochemical, luminescent, uHTS hits, set 2 (AID 488793); format: functional
[5] = molecular target: T2, Intestinal-type alkaline phosphatase; experiment: Dose Response confirmation of uHTS hits from a small molecule inhibitors of human intestinal alkaline phosphatase via a luminescent assay. [Related pubchem assays (depositor defined):AID2544, AID2574]; format: functional
[6] = molecular target: Alkaline phosphatase, tissue-nonspecific isozyme (Homo sapiens, UniProt P05186); experiment: inhibition of tissue-nonspecific alkaline phosphatase – biochemical, dose response (AID 488882); format: functional
[7] = molecular target: UDP-galactopyranose mutase (Mycobacterium tuberculosis, UniProt P9WIQ1); experiment: Inhibitors of Mycobacterium tuberculosis UDP-galactopyranose mutase (UGM) enzyme Measured in Biochemical System Using Plate Reader - 2105-02_Inhibitor_Dose_CherryPick_Activity. [Related pubchem assays (depositor defined):AID504439]
[8] = molecular target: Lysine-specific demethylase 4C (Homo sapiens, UniProt Q9H3R0); experiment: GASC-1 (JMJD2C) histone demethylase inhibitors, dose response, biochemical, DELFIA europium, cherry-picked samples (AID 488835); format: functional
[9] = molecular target: T3, Tyrosine-protein phosphatase non-receptor type 7 (Homo sapiens, UniProt P35236); format: functional
T3 sequence (P35236 whole entry): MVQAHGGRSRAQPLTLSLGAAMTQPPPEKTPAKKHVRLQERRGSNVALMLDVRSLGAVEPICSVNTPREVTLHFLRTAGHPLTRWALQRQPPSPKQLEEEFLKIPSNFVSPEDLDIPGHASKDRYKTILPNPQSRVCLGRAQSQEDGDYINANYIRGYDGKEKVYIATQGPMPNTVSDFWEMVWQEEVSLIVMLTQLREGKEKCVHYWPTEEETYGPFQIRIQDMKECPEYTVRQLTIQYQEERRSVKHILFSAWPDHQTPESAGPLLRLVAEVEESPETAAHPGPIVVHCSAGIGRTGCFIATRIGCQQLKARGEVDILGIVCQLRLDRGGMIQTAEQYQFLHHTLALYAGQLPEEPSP

[10] = molecular target: T4, Tyrosine-protein phosphatase non-receptor type 22 (Homo sapiens, UniProt Q9Y2R2); format: functional
T4 sequence (Q9Y2R2 whole entry): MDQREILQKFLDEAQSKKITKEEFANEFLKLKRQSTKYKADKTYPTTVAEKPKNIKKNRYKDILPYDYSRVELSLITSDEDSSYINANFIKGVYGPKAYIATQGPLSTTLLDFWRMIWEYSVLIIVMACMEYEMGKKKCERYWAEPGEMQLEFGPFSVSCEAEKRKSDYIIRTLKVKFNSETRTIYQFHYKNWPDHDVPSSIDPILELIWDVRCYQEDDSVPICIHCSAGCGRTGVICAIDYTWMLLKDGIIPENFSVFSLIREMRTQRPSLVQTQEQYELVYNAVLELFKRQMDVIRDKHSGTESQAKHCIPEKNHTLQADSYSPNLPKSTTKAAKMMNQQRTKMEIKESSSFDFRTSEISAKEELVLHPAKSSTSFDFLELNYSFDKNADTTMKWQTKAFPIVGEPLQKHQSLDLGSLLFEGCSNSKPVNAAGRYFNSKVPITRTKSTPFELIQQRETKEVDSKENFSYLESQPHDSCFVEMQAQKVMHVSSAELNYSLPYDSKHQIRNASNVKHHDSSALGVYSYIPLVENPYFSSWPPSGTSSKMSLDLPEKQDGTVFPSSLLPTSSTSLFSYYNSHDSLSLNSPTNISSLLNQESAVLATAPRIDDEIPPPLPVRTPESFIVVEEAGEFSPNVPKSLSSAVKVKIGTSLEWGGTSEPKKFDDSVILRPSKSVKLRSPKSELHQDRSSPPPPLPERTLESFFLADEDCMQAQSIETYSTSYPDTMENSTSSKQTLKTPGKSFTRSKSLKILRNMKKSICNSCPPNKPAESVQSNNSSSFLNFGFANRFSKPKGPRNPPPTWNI

[11] = molecular target: T4, Tyrosine-protein phosphatase non-receptor type 22; format: functional; remark: listed apart in the source
[12] = NIH-3T3 fibroblast cytotoxicity, dose response, cytotoxicity control, cell-based, fluorescence, Alamar Blue, secondary assay (AID 2327); format: functional;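 note: NIH-3T3 mouse fibroblasts cultured with fluconazole at 8 µg/mL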
[13] = C. albicans growth with fluconazole, confirmation, fluorescence, retest (AID 2467); format: functional, cell-based
[14] = molecular target: T5, Serine/threonine-protein phosphatase (Candida dubliniensis (strain CD36 / CBS 7987 / NCPF 3949 / NRRLY-17841) (Yeast), UniProt B9W6M3); experiment: calcineurin pathway inhibitors in yeast reporter, dose response, S. cerevisiae, CDRE-lacZ, luminescence, secondary (AID 2388); format: functional, cell-based;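 note: yeast reporter cells carrying a calcineurin-responsive lacZ construct stimulated with calcium chloride; luminescent beta-galactosidase reporter signal in whole cells rather than isolated phosphatase activity; potency for inhibition where a drop in reporter signal means calcineurin blockade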
T5 sequence (B9W6M3 whole entry): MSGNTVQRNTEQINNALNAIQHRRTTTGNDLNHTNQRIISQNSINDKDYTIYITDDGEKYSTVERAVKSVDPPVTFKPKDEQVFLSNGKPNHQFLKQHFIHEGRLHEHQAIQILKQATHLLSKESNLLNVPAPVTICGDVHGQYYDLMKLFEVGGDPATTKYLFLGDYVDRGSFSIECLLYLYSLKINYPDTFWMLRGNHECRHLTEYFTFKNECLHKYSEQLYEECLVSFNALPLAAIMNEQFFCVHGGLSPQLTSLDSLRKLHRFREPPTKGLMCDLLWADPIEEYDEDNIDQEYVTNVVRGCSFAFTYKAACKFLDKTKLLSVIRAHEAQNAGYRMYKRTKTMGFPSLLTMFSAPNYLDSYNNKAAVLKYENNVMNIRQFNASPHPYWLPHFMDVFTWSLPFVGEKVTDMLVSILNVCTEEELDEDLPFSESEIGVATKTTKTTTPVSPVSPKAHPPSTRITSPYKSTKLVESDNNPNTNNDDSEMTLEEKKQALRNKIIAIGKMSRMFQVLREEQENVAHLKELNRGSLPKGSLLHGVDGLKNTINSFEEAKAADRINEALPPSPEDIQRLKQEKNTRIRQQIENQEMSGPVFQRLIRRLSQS

[15] = molecular target: T6, Peroxisome proliferator-activated receptor gamma (Homo sapiens, UniProt P37231); experiment: PPARg ligand-binding domain binders, dose response, PPARg partial agonist project, biochemical, TR-FRET, LanthaScreen (AID 504446)
T6 sequence (P37231 whole entry): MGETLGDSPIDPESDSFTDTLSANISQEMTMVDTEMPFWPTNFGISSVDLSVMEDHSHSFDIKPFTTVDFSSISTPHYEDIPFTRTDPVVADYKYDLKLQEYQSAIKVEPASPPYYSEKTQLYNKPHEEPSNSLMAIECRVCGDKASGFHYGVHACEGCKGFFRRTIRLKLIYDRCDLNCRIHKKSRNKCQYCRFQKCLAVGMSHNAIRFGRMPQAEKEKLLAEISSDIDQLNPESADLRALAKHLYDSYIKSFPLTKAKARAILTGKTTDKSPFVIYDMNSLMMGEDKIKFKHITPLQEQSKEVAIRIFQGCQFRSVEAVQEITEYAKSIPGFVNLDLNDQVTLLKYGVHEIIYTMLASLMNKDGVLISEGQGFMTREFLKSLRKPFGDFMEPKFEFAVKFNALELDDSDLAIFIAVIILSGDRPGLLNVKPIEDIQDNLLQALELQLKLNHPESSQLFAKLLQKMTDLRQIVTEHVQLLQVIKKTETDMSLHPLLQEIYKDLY

[16] = molecular target: T6, Peroxisome proliferator-activated receptor gamma; experiment: PPARg ligand-binding domain binders, dose response, PPARg partial agonist project, biochemical, fluorescence polarization, PolarScreen (AID 504453)
[17] = molecular target: T6, Peroxisome proliferator-activated receptor gamma; experiment: PPARg partial agonists, dose response, cell-based, luminescence, assay provider (AID 504447); format: functional
[18] = molecular target: ATP-dependent molecular chaperone HSP82 (Candida albicans (strain WO-1) (Yeast), UniProt C4YTQ8); experiment: loss of DOC-induced GRE-beta-galactosidase reporter signal, dose response, Hsp90 inhibitor project, S. cerevisiae, luminescence (AID 2400); format: functional, cell-based;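 note: beta-galactosidase luminescence from glucocorticoid response element reporter as proxy for Hsp90 function; inhibitor potency where signal loss means Hsp90 inhibition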
Mu-type opioid receptor [19] = molecular target: T7, Mu-type opioid receptor (Homo sapiens, UniProt P35372); experiment: SAR Analysis of Antagonists of the MOR Receptor using an Image-Based Assay - Set 2. [Related pubchem assays (depositor defined):AID1777, AID1785, AID1786, AID1966, AID2133, AID2136, AID2284, AID2285, AID2420]; format: functional
[20] = molecular target: T8, Kappa-type opioid receptor (Homo sapiens, UniProt P41145); experiment: SAR analysis of Antagonists of the Kappa Opioid Receptor (KOR) using an Image-Based Assay - Set 2. [Related pubchem assays (depositor defined):AID1777, AID1785, AID1786, AID1966, AID2133, AID2136, AID2284, AID2285, AID2348]; format: functional
Mu-type opioid receptor [21] = molecular target: T7, Mu-type opioid receptor; experiment: SAR Analysis of Agonists of the MOR Receptor using an Image-Based Assay - Set 2. [Related pubchem assays (depositor defined):AID1777, AID1785, AID1786, AID1966, AID2133, AID2136, AID2284, AID2285, AID2352]; format: functional
[22] = molecular target: T8, Kappa-type opioid receptor; experiment: SAR analysis of small molecule agonists of the kappa opioid receptor via a luminescent beta-arrestin assay - Set 2. [Related pubchem assays (depositor defined):AID1777, AID1785, AID1786, AID1966, AID2133, AID2136, AID2284, AID449737]; format: functional
[23] = molecular target: T9, Delta-type opioid receptor (Homo sapiens, UniProt P41143); experiment: SAR Analysis of Agonists of the DOR Receptor using an Image-Based Assay - Set 2. [Related pubchem assays (depositor defined):AID1777, AID1785, AID1786, AID1966, AID2133, AID2136, AID2284, AID2285, AID2370]; format: functional
[24] = molecular target: T9, Delta-type opioid receptor; experiment: SAR Analysis of Antagonists of the DOR Receptor using an Image-Based Assay - Set 2. [Related pubchem assays (depositor defined):AID1777, AID1785, AID1786, AID1966, AID2133, AID2136, AID2284, AID2285, AID2357]; format: functional
[25] = molecular target: T8, Kappa-type opioid receptor; experiment: KOR antagonist analogs, beta-arrestin recruitment, SAR follow-up, cell-based, luminescence, set 2 (AID 2495); format: functional
[26] = molecular target: T8, Kappa-type opioid receptor; experiment: SAR analysis of Agonists of the Kappa Opioid Receptor (KOR) using an Image-Based Assay - Set 2. [Related pubchem assays (depositor defined):AID1777, AID1786, AID1966, AID2133, AID2136, AID2284, AID2285, AID2359]; format: functional

T8 sequence (P41145 whole entry): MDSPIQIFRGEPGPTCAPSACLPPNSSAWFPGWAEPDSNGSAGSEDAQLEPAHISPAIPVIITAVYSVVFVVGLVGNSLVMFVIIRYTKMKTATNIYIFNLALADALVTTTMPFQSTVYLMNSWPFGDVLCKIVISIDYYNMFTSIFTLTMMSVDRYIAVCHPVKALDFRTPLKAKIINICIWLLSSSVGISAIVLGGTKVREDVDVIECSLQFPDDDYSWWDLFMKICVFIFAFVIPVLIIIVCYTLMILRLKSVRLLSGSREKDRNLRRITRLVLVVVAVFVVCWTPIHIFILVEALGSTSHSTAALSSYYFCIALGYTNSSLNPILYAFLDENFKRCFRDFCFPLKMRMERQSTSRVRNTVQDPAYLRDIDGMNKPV
T2 sequence (P09923 whole entry): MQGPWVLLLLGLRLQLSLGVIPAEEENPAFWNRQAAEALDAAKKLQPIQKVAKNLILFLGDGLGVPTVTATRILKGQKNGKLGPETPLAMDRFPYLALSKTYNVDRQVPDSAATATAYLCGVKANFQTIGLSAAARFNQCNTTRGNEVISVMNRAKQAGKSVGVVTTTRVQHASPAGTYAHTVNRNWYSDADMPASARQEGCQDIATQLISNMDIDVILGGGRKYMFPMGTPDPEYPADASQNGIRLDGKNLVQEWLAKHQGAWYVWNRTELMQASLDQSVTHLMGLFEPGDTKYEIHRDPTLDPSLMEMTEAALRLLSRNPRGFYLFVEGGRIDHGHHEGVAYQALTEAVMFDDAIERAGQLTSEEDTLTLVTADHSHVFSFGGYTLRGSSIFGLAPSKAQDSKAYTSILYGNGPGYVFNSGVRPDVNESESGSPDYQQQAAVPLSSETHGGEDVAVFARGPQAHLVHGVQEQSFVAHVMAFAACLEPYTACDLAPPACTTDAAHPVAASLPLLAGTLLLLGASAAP
T7 sequence (P35372 whole entry): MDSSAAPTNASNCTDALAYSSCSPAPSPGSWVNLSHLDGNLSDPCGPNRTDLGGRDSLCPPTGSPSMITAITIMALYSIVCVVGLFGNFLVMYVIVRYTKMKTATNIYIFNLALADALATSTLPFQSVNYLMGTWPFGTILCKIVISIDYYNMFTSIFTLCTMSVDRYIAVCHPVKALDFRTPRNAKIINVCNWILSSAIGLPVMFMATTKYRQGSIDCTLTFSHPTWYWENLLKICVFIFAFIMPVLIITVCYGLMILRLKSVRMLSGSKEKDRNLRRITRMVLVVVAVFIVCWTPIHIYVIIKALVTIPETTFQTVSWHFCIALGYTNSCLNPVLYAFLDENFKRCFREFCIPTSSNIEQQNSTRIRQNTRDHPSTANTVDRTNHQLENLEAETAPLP
T9 sequence (P41143 whole entry): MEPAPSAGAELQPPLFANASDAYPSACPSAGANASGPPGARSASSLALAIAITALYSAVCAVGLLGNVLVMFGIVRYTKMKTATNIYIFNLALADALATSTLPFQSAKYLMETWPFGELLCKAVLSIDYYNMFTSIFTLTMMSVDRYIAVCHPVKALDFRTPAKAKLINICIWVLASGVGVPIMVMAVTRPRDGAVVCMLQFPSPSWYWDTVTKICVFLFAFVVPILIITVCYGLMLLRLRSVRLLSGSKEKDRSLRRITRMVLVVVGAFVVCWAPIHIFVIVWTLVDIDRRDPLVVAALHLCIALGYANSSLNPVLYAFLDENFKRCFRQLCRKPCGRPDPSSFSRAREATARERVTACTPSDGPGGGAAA
Chain of Beta-galactosidase (Q8VNN2 whole entry): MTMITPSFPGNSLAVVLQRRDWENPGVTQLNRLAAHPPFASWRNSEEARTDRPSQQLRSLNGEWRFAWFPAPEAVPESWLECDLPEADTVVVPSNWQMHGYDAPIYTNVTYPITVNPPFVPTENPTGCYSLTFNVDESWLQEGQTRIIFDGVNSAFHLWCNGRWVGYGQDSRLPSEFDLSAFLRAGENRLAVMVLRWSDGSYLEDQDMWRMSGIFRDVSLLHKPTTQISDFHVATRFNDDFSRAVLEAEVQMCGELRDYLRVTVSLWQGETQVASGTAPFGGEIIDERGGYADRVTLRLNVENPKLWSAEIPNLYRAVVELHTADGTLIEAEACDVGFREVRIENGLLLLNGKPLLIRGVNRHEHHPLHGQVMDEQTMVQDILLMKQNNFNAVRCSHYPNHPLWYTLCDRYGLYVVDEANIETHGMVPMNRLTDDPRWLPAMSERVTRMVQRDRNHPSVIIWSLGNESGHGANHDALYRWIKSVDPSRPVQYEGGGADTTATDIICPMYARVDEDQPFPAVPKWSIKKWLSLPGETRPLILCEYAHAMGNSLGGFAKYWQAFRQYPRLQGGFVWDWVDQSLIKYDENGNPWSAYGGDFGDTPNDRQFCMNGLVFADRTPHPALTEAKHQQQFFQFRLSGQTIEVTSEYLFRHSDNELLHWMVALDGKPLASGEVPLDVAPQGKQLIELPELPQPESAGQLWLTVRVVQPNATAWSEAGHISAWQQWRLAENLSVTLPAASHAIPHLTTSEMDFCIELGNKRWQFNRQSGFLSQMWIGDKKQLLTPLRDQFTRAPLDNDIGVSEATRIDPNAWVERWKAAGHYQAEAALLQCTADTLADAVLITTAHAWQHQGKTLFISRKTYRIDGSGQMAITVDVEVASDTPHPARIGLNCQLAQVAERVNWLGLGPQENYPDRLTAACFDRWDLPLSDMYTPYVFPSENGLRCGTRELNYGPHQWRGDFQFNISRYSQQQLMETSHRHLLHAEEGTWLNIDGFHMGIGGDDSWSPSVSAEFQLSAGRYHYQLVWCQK
Chain of Intestinal-type alkaline phosphatase (Mus musculus, UniProt P24822) (P24822 whole entry): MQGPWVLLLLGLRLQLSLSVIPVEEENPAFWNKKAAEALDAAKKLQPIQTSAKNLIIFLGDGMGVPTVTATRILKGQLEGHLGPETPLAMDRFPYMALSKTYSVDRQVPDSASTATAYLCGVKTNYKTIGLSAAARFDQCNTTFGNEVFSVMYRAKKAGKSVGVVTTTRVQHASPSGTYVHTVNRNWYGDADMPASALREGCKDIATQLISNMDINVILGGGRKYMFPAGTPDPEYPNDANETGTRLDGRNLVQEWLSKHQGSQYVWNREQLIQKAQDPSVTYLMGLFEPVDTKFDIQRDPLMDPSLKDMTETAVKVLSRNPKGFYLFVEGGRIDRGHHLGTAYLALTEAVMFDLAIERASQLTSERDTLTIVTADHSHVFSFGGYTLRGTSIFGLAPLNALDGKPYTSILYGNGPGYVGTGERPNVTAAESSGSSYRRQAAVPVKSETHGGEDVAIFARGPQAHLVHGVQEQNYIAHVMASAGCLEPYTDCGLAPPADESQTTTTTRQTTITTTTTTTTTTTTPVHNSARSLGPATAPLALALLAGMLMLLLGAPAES
Chain of ATP-dependent molecular chaperone HSP82 (C4YTQ8 whole entry): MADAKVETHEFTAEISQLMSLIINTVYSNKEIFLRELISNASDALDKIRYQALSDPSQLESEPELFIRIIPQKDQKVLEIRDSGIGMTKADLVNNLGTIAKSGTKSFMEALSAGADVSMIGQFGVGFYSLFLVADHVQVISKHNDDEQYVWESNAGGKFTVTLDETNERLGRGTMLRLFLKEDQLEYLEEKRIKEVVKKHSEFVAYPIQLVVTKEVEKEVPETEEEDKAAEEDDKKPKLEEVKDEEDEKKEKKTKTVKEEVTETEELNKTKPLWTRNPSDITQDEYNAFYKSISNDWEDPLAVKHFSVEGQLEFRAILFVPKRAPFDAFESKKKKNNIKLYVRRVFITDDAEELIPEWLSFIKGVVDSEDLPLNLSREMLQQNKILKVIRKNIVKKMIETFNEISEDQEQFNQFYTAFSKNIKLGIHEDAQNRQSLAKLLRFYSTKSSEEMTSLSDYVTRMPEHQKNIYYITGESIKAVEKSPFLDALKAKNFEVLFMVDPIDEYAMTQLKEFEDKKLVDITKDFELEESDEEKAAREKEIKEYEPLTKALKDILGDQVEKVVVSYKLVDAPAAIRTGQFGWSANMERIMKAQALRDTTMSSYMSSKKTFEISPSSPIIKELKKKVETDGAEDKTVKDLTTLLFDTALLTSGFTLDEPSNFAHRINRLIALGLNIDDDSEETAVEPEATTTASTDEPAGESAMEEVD
Chain of Cytochrome P450 2D6 (P10635 whole entry): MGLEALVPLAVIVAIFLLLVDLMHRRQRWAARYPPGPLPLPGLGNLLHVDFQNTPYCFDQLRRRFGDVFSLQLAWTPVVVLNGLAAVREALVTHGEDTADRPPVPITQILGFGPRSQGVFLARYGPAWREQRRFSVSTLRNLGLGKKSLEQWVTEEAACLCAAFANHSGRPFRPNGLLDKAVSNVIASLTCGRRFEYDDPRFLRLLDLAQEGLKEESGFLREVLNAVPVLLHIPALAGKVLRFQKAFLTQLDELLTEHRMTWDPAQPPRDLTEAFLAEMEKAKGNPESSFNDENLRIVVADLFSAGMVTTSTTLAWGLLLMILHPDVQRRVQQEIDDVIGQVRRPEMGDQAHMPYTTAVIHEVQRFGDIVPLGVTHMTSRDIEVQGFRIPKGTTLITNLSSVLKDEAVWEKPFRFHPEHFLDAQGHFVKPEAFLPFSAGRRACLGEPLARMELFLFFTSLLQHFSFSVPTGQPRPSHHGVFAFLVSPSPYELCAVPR
Chain of Alkaline phosphatase, tissue-nonspecific isozyme (P05186 whole entry): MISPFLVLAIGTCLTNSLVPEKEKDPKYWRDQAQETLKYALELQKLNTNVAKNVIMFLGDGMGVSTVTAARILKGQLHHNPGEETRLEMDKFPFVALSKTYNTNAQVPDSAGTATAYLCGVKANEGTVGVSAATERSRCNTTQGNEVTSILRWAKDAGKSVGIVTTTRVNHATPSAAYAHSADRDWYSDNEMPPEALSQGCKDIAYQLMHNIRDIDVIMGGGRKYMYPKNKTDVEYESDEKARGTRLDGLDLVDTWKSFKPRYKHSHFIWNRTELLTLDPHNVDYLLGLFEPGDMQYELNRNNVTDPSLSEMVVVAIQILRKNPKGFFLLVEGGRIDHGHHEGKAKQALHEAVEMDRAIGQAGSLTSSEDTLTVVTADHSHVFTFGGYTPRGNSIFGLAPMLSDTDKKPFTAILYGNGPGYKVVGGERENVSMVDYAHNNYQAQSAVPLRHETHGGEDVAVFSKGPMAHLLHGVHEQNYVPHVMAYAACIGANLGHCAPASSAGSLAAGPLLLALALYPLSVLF

## O=C(O)C1(C(=O)O)CCN(S(=O)(=O)c2ccccc2)CC1
Cytochrome P450 2D6
  AC50: inconclusive

## COc1ccc(CCN(C)C(=O)c2ccc(S(=O)(=O)Nc3ccccc3C)cc2)cc1OC
[1]
  AC50: > 350 µM (inactive)

## CN(C)c1ccc2nc3c(=O)[nH]c(=O)nc-3n(CC(O)C(O)C(O)CO)c2c1 (stereo not drawn)
Beta-galactosidase
  EC50: > 40 µM (inactive)
[2]
  IC50: 29.1 µM (not active)
[3]
  IC50: 30.8 µM (active)
[4]
  IC50: 34 µM (active)
[5]
  IC50: 14.7 µM (inactive)
[6]
  IC50: 33 µM (active)
[7]
  AC50: > 500 µM (inactive)

## CC(=O)Nc1ccc(CN2CCN(c3cccc(C(F)(F)F)c3)CC2)cc1
[8]
  AC50: 24.8 µM (active)

## COC(=O)C1=NN(C(=O)c2cccc(Cl)c2)C(O)(C(C)(C)C)C1 (stereo not drawn)
[9]
  IC50: > 79.4 µM (inactive)
[10]
  IC50: > 79.4 µM (inactive)
[11]
  IC50: > 79.4 µM (inactive)

## Cc1ccc2nc(N3C(=O)C(O)=C(C(=O)c4ccco4)C3c3ccc(C)o3)sc2c1 (stereo not drawn)
[12]
  EC50: 67.5 µM (active)
[13]
  EC50: 0.071 µM (active)
[14]
  EC50: > 180 µM (inactive)
[15]
  IC50: 14 µM (inactive)
[16]
  IC50: 30 µM (active)
[17]
  EC50: 26 µM (active)
[18]
  EC50: 9.58 µM (active)

## Cc1ccc(S(=O)(=O)NCc2ccc(C(=O)NCCCN(Cc3ccccc3)C(C)C)cc2)cc1
Mu-type opioid receptor [19]
  IC50: > 32 µM (inactive)
[20]
  IC50: > 32 µM (inactive)
Mu-type opioid receptor [21]
  EC50: > 32 µM (inactive)
[22]
  EC50: > 20 µM (inactive)
[23]
  EC50: > 32 µM (inactive)
[24]
  IC50: > 32 µM (inactive)
[25]
  IC50: > 20 µM (inactive)
[26]
  EC50: > 32 µM (inactive)
